Reference: the Kinase Knowledgebase extract (Sharma et al. 2016)

What follows are compounds tested against EGFR (human) (UniProt P00533). Conditions: kb.
Sequence of EGFR (human) (P00533 whole entry, looked up): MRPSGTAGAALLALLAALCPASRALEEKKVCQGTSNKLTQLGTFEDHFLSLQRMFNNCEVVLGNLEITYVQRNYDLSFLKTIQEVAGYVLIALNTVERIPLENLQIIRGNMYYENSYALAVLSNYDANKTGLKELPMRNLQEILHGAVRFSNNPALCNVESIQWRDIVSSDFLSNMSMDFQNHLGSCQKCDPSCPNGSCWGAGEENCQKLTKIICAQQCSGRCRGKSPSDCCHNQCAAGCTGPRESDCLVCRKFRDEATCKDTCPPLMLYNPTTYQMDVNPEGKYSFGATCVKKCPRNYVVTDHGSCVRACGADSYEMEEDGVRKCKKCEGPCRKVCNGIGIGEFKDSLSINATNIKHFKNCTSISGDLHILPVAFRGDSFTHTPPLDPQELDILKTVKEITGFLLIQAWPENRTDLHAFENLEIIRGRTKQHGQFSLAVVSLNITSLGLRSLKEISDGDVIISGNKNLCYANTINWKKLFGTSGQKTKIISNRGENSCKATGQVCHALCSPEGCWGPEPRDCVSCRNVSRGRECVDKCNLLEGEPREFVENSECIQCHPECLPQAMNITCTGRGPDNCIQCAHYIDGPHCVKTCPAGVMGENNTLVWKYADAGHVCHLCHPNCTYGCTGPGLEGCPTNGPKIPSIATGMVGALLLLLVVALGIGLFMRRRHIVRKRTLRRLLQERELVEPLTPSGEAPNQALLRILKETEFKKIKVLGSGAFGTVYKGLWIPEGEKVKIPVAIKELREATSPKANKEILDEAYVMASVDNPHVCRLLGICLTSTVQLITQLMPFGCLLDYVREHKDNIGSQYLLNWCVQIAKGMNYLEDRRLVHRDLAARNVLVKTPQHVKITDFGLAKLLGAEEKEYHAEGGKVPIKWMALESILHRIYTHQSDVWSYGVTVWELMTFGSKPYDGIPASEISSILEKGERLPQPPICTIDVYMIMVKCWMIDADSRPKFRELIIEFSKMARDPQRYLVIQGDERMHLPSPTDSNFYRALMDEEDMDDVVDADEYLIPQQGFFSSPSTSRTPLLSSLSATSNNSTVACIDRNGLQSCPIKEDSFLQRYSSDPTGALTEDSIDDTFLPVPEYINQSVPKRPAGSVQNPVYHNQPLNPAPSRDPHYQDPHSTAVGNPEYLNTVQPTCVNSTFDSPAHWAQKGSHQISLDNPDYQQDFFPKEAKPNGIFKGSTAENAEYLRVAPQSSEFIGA

Row | SMILES | IC50 [nM]
1 | COc1cc2ncnc(Nc3cnc4ccccc4n3)c2cc1OC | > 25000
2 | COc1cc2ncnc(Nc3nccc4ccccc34)c2cc1OC | 1800
3 | COc1cc2ncnc(NC3CC3c3ccccc3)c2cc1OCCN1CCOCC1 (centres undefined) | 570
4 | COc1cc2ncnc(NC3CC3c3ccccc3)c2cc1OC(C)=O (centres undefined) | 11400
5 | COc1cc2ncnc(NCc3cccc(C)c3)c2cc1OC | 1600
6 | COc1cc2ncnc(Nc3nnc4ccccc4n3)c2cc1OC | > 25000
7 | COc1cc2ncnc(NC3CC3c3ccccc3)c2cc1OC (centres undefined) | 140
8 | COc1cc2ncnc(NC3CC3c3ccccc3)c2cc1OCCCN(C)C (centres undefined) | 310
9 | COc1cc2ncnc(N3CCc4ccccc43)c2cc1OC | 4100
10 | COc1cc2ncnc(NC3CCc4ccccc43)c2cc1OC (centres undefined) | 1730
11 | COc1cc2ncnc(NC3CC3c3ccccc3)c2cc1O (centres undefined) | > 25000
12 | COc1cc2ncnc(NNc3ccc(F)c(Cl)c3)c2cc1OC | 780
13 | COc1cc2ncnc(Nc3cncc4ccccc34)c2cc1OC | 360

What follows are compounds tested against EGFR (human) (UniProt P00533). Conditions: a431, dose or concentration not given here.

Row | SMILES | inhibition [%]
14 | COc1cc2ncnc(NC3CC3c3ccccc3)c2cc1OCCCN(C)C (centres undefined) | 36
